pIC50: −log10 of the molar value. Where “and” joins values, the source holds several entries; their conditions need not be identical. Equal entries are not always repeated. Where two headings read alike, the source gives them in different places.
Experiments:
Test in all cases: cell-based
[1] = molecular target: T1, hNav1.4 (Homo sapiens, UniProt P35499); conditions: for pIC50: PatchXpress, read-out: PX hNav1.4 Tonic IC50
[2] = molecular target: hNav1.5 (Homo sapiens, UniProt Q14524); conditions: for pIC50: PatchXpress, read-out: PX hNav1.5 Tonic IC50
[3] = molecular target: T1, hNav1.4; conditions: ratio of IonWorks Quattro IC50 values
[4] = * = at high concentrations compound would wash off slowly or not at all

hNav1.5, sequence (Q14524 whole entry): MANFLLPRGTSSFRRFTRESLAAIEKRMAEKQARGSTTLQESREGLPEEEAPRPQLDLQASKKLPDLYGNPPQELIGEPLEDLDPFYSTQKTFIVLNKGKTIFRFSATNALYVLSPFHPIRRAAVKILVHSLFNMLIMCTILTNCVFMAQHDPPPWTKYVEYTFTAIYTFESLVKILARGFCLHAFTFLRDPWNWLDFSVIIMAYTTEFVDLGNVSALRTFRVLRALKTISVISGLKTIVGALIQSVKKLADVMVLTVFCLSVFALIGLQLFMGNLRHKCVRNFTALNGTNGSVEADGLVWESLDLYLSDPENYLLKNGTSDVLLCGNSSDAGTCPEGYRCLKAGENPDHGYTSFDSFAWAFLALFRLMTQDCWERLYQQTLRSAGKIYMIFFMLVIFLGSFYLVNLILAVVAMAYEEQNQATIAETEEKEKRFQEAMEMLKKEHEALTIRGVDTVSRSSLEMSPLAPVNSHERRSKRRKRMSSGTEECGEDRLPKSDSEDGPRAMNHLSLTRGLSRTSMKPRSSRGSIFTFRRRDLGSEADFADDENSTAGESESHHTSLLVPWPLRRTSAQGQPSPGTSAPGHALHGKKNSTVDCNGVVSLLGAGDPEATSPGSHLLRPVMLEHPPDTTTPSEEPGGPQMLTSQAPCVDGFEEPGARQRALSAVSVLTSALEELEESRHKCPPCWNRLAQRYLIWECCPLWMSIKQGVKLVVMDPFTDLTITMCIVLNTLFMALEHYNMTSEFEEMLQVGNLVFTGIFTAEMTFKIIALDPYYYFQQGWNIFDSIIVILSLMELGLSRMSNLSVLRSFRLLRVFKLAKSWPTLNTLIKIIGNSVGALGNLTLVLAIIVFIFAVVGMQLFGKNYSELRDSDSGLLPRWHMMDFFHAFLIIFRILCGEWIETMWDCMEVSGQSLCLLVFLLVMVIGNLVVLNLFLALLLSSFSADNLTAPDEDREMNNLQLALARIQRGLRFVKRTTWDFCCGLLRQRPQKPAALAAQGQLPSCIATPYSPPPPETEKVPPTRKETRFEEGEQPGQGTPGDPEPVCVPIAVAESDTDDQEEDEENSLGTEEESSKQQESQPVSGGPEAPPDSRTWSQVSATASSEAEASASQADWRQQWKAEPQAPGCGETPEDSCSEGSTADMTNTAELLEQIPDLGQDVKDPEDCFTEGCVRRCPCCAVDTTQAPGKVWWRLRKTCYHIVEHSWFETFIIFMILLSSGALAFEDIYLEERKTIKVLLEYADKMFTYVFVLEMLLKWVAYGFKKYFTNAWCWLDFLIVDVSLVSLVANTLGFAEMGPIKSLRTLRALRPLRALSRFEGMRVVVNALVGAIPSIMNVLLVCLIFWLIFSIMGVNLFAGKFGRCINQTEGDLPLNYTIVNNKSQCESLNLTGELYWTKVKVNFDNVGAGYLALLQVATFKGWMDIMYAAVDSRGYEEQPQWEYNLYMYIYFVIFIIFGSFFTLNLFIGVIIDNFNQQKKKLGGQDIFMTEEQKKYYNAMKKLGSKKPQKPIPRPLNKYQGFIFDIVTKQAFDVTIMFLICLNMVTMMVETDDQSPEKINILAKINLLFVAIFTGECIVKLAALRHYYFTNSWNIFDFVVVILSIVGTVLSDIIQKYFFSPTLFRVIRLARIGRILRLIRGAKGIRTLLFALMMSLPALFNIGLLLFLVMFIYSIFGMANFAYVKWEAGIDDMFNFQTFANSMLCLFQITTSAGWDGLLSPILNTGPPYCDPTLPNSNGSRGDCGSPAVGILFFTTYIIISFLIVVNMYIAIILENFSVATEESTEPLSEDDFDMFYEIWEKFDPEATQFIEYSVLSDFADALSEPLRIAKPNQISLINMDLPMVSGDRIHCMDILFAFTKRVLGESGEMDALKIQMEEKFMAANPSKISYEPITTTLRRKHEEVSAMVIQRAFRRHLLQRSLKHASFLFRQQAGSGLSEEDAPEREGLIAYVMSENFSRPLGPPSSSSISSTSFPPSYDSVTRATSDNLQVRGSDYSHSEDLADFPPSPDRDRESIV
T1 sequence (P35499 whole entry): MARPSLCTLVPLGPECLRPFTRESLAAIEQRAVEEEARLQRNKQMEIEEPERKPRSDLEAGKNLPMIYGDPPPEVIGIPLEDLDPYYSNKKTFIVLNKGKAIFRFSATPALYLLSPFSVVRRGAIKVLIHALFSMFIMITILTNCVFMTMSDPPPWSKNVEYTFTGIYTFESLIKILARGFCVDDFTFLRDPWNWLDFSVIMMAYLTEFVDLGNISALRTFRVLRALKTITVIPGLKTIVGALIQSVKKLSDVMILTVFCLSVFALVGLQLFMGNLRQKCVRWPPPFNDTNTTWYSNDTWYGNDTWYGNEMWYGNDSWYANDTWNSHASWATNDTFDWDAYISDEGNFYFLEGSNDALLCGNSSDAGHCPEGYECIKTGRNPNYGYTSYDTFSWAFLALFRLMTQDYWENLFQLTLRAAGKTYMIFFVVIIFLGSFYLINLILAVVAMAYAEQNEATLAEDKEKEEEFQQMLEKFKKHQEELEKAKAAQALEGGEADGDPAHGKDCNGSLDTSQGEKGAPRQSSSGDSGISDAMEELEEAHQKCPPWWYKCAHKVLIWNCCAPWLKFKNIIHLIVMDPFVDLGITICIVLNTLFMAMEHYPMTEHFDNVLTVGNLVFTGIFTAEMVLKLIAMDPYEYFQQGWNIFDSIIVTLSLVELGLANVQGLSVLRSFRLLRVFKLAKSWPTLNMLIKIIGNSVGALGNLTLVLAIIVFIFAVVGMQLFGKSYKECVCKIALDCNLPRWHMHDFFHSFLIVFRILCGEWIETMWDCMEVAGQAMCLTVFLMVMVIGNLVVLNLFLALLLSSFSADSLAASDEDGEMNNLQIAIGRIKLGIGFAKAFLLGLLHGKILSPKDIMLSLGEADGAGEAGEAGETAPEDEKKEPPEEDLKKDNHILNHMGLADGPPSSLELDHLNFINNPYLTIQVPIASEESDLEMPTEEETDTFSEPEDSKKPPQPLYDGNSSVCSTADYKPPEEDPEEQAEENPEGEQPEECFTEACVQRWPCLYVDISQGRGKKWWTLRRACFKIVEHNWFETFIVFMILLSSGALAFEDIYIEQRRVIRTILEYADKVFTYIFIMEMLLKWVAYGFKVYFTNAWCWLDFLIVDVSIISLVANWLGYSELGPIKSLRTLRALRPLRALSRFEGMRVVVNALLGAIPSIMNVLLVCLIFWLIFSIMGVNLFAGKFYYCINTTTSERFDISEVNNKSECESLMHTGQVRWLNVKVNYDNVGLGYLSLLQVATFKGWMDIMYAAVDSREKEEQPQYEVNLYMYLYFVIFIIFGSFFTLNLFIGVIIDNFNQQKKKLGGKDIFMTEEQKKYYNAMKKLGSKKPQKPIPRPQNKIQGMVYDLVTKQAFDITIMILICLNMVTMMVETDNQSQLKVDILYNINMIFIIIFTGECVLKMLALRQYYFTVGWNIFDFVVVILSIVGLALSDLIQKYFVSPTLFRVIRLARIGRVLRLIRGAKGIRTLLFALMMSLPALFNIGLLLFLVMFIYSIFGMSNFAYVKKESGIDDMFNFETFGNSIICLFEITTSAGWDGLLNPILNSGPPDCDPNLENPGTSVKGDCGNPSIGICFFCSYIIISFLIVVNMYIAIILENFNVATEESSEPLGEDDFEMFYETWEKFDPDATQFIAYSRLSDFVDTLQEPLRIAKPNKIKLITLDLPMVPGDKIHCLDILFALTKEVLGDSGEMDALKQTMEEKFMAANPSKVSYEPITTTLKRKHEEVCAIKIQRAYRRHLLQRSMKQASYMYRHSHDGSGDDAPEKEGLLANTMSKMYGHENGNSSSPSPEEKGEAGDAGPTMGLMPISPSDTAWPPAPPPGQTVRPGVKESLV

SMILES | pIC50 [1, 4] | Nav1.4/Nav1.7 ([1]; ratio of PX IC50 values) | pIC50 [2, 4] | Nav1.5/Nav1.7 ([2]; ratio of PX IC50 values) | further results
CSCC[C@@H]1NC(=O)[C@H](Cc2c[nH]c3ccccc23)NC(=O)[C@H](CCCCN)NC(=O)[C@H](CCC(N)=O)NC(=O)[C@@H](NC(=O)[C@@H](N)Cc2ccc(O)cc2)CSSC[C@@H]2NC(=O)[C@@H]3CSSC[C@@H](C(=O)N[C@@H](CCCCN)C(=O)N[C@@H](Cc4ccc(O)cc4)C(=O)N[C@@H](CC(N)=O)C(=O)N[C@@H](CC(C)C)C(N)=O)NC(=O)[C@H](Cc4c[nH]c5ccccc45)NC(=O)[C@H](CC(C)C)NC(=O)[C@H](CCC(=O)O)NC(=O)[C@H](CSSC[C@H](NC(=O)[C@H]([C@@H](C)O)NC(=O)[C@H](Cc4c[nH]c5ccccc45)NC1=O)C(=O)N[C@@H](CC(=O)O)C(=O)N[C@@H](CO)C(=O)N[C@@H](CCC(=O)O)C(=O)N[C@@H](CCCNC(=N)N)C(=O)N[C@@H](CCCCN)C(=O)N3)NC(=O)[C@H](C(C)C)NC(=O)[C@H](Cc1ccc(O)cc1)NC(=O)CNC(=O)[C@H](CCC(=O)O)NC2=O [compound 48] |  |  |  |  | Nav1.4/Nav1.7 [1]: 3; Nav1.5/Nav1.7 [2]: 61
CC[C@H](C)[C@H](NC(=O)[C@H](CCCCN)NC(=O)[C@H](CCCNC(=N)N)NC(=O)[C@@H]1CSSC[C@@H]2NC(=O)[C@H](C)NC(=O)[C@H](CCCNC(=N)N)NC(=O)[C@H](CCCCN)NC(=O)[C@H](CO)NC(=O)[C@H](CC(=O)O)NC(=O)[C@@H]3CSSC[C@H](NC(=O)[C@H](CCCNC(=N)N)NC(=O)[C@H](CC(C)C)NC(=O)CNC(=O)[C@H](CCC(=O)O)NC(=O)[C@H](CSSC[C@H](NC(=O)[C@@H](N)Cc4ccc(O)cc4)C(=O)N[C@@H](CCC(N)=O)C(=O)N[C@@H](CCCCN)C(=O)N[C@@H](Cc4c[nH]c5ccccc45)C(=O)N[C@@H](CCSC)C(=O)N[C@@H](Cc4c[nH]c5ccccc45)C(=O)N[C@@H]([C@@H](C)O)C(=O)N3)NC2=O)C(=O)N[C@@H](CCCCN)C(=O)N[C@@H](CC(C)C)C(=O)N[C@@H](Cc2c[nH]c3ccccc23)C(=O)N1)C(=O)N[C@@H](CCC(=O)O)C(N)=O [compound 70] | 4.95 | 43 | < 5.00 | >38 | 
CCCC[C@@H]1NC(=O)[C@H](Cc2c[nH]c3ccccc23)NC(=O)[C@H](CCCCN)NC(=O)[C@H](CCC(N)=O)NC(=O)[C@@H](NC(=O)[C@@H](N)Cc2ccc(O)cc2)CSSC[C@@H]2NC(=O)[C@@H]3CSSC[C@@H](C(=O)N[C@@H](CCCNC(=N)N)C(=O)N[C@@H](CCCCN)C(=O)N[C@H](C(=O)N[C@H](C(N)=O)[C@@H](C)CC)[C@@H](C)CC)NC(=O)[C@H](Cc4c[nH]c5ccccc45)NC(=O)[C@H](CC(C)C)NC(=O)[C@H](CCCCN)NC(=O)[C@H](CSSC[C@H](NC(=O)[C@H]([C@@H](C)O)NC(=O)[C@H](Cc4c[nH]c5ccccc45)NC1=O)C(=O)N[C@@H](CC(=O)O)C(=O)N[C@@H](Cc1cn(CCCOCCOCCOCCOCCOCCOCCOCCOCCOCCOCCN)nn1)C(=O)N[C@@H](CCCCN)C(=O)N[C@@H](CCCNC(=N)N)C(=O)N[C@@H](C)C(=O)N3)NC(=O)[C@H](CCCNC(=N)N)NC(=O)[C@H](CC(C)C)NC(=O)CNC(=O)[C@H](CCC(=O)O)NC2=O [compound 256] |  | 3 |  | 200 | Nav1.4/Nav1.7 [3]: 4
CCCC[C@@H]1NC(=O)[C@H](Cc2c[nH]c3ccccc23)NC(=O)[C@H](CCCCN)NC(=O)[C@H](CCC(N)=O)NC(=O)[C@@H](NC(=O)[C@H](Cc2ccc(O)cc2)NC(=O)[C@@H](N)CC(C)C)CSSC[C@@H]2NC(=O)[C@@H]3CSSC[C@@H](C(=O)N[C@@H](CCCNC(=N)N)C(=O)N[C@@H](CCCCN)C(=O)N[C@H](C(=O)N[C@H](C(N)=O)[C@@H](C)CC)[C@@H](C)CC)NC(=O)[C@H](Cc4c[nH]c5ccccc45)NC(=O)[C@H](CC(C)C)NC(=O)[C@H](CCCCN)NC(=O)[C@H](CSSC[C@H](NC(=O)[C@H]([C@@H](C)O)NC(=O)[C@H](Cc4c[nH]c5ccccc45)NC1=O)C(=O)N[C@@H](CC(=O)O)C(=O)N[C@@H](CO)C(=O)N[C@@H](CCCCN)C(=O)N[C@@H](CCCNC(=N)N)C(=O)N[C@@H](C)C(=O)N3)NC(=O)[C@H](CCCNC(=N)N)NC(=O)[C@H](CC(C)C)NC(=O)CNC(=O)[C@H](CCC(=O)O)NC2=O [compound 361] |  | 0 |  | 0 | 
CCCC[C@@H]1NC(=O)[C@H](Cc2c[nH]c3ccccc23)NC(=O)[C@H](CCCCN)NC(=O)[C@H](CCC(N)=O)NC(=O)[C@@H](NC(=O)[C@H](Cc2ccc(O)cc2)NC(=O)[C@@H](N)CCC)CSSC[C@@H]2NC(=O)[C@@H]3CSSC[C@@H](C(=O)N[C@@H](CCCNC(=N)N)C(=O)N[C@@H](CCCCN)C(=O)N[C@H](C(=O)N[C@H](C(N)=O)[C@@H](C)CC)[C@@H](C)CC)NC(=O)[C@H](Cc4c[nH]c5ccccc45)NC(=O)[C@H](CC(C)C)NC(=O)[C@H](CCCCN)NC(=O)[C@H](CSSC[C@H](NC(=O)[C@H]([C@@H](C)O)NC(=O)[C@H](Cc4c[nH]c5ccccc45)NC1=O)C(=O)N[C@@H](CC(=O)O)C(=O)N[C@@H](CO)C(=O)N[C@@H](CCCCN)C(=O)N[C@@H](CCCNC(=N)N)C(=O)N[C@@H](C)C(=O)N3)NC(=O)[C@H](CCCNC(=N)N)NC(=O)[C@H](CC(C)C)NC(=O)CNC(=O)[C@H](CCC(=O)O)NC2=O [compound 369] | 7.94 |  | 6.31 |  | 
CCCC[C@@H]1NC(=O)[C@H](Cc2c[nH]c3ccccc23)NC(=O)[C@H](CCCCN)NC(=O)[C@H](CCC(N)=O)NC(=O)[C@@H](NC(=O)[C@H](Cc2ccc(O)cc2)NC(=O)[C@H](N)CC(C)C)CSSC[C@@H]2NC(=O)[C@@H]3CSSC[C@@H](C(=O)N[C@@H](CCCNC(=N)N)C(=O)N[C@@H](CCCCN)C(=O)N[C@H](C(=O)N[C@H](C(N)=O)[C@@H](C)CC)[C@@H](C)CC)NC(=O)[C@H](Cc4c[nH]c5ccccc45)NC(=O)[C@H](CC(C)C)NC(=O)[C@H](CCCCN)NC(=O)[C@H](CSSC[C@H](NC(=O)[C@H]([C@@H](C)O)NC(=O)[C@H](Cc4c[nH]c5ccccc45)NC1=O)C(=O)N[C@@H](CC(=O)O)C(=O)N[C@@H](CO)C(=O)N[C@@H](CCCCN)C(=O)N[C@@H](CCCNC(=N)N)C(=O)N[C@@H](C)C(=O)N3)NC(=O)[C@H](CCCNC(=N)N)NC(=O)[C@H](CC(C)C)NC(=O)CNC(=O)[C@H](CCC(=O)O)NC2=O [compound 373] | 7.54 | 190 | 6.39 |  | 
C#CC[C@H](N)C(=O)NCCOCCOCCOCCOCCC(=O)NCCCC[C@@H]1NC(=O)[C@H](CCCNC(=N)N)NC(=O)[C@H](CCCCN)NC(=O)[C@H](CO)NC(=O)[C@H](CC(=O)O)NC(=O)[C@@H]2CSSC[C@@H]3NC(=O)[C@H](CCCNC(=N)N)NC(=O)[C@H](CC(C)C)NC(=O)CNC(=O)[C@H](CCC(=O)O)NC(=O)[C@H](CSSC[C@H](NC(=O)[C@H](Cc4ccc(O)cc4)NC(=O)[C@@H](N)CC#N)C(=O)N[C@@H](CCC(N)=O)C(=O)N[C@@H](CCCCN)C(=O)N[C@@H](Cc4c[nH]c5ccccc45)C(=O)N[C@@H](CCCC)C(=O)N[C@@H](Cc4c[nH]c5ccccc45)C(=O)N[C@@H]([C@@H](C)O)C(=O)N2)NC(=O)[C@H](CSSC[C@@H](C(=O)N[C@@H](CCCNC(=N)N)C(=O)N[C@@H](CCCCN)C(=O)N[C@H](C(=O)N[C@H](C(N)=O)[C@@H](C)CC)[C@@H](C)CC)NC(=O)[C@H](Cc2c[nH]c4ccccc24)NC(=O)[C@H](CC(C)C)NC(=O)[C@H](CCCCN)NC3=O)NC1=O [compound 380] |  |  |  |  | Nav1.4/Nav1.7 ([1]; ratio of PX tonic IC50 values): 0; Nav1.5/Nav1.7 ([2]; ratio of PX tonic IC50 values): 0
C#CC[C@H](N)C(=O)NCCCC[C@@H]1NC(=O)[C@H](CCCNC(=N)N)NC(=O)[C@H](CCCCN)NC(=O)[C@H](CO)NC(=O)[C@H](CC(=O)O)NC(=O)[C@@H]2CSSC[C@@H]3NC(=O)[C@H](CCCNC(=N)N)NC(=O)[C@H](CC(C)C)NC(=O)CNC(=O)[C@H](CCC(=O)O)NC(=O)[C@H](CSSC[C@H](NC(=O)[C@H](Cc4ccc(O)cc4)NC(=O)[C@@H](N)CC#N)C(=O)N[C@@H](CCC(N)=O)C(=O)N[C@@H](CCCCN)C(=O)N[C@@H](Cc4c[nH]c5ccccc45)C(=O)N[C@@H](CCCC)C(=O)N[C@@H](Cc4c[nH]c5ccccc45)C(=O)N[C@@H]([C@@H](C)O)C(=O)N2)NC(=O)[C@H](CSSC[C@@H](C(=O)N[C@@H](CCCNC(=N)N)C(=O)N[C@@H](CCCCN)C(=O)N[C@@H](CCC(=O)O)C(=O)N[C@H](C(N)=O)[C@@H](C)CC)NC(=O)[C@H](Cc2c[nH]c4ccccc24)NC(=O)[C@H](CC(C)C)NC(=O)[C@H](CCCCN)NC3=O)NC1=O [compound 392] |  |  |  |  | pIC50 ([1]; tonic block): 7.06 and 6.91; pIC50 ([2]; tonic block): 6.04 and 5.84 and 5.67
C#CC[C@@H]1NC(=O)[C@@H]2CSSC[C@H](NC(=O)[C@H](Cc3ccc(O)cc3)NC(=O)[C@@H](N)CC#N)C(=O)N[C@@H](CCC(N)=O)C(=O)N[C@@H](CCCCN)C(=O)N[C@@H](Cc3c[nH]c4ccccc34)C(=O)N[C@@H](CCCC)C(=O)N[C@@H](Cc3c[nH]c4ccccc34)C(=O)N[C@@H]([C@@H](C)O)C(=O)N[C@H]3CSSC[C@H](NC(=O)[C@H](CCCNC(=N)N)NC(=O)[C@H](CC(C)C)NC(=O)CNC1=O)C(=O)N[C@@H](CCCCN)C(=O)N[C@@H](CC(C)C)C(=O)N[C@@H](Cc1c[nH]c4ccccc14)C(=O)N[C@H](C(=O)N[C@@H](CCCNC(=N)N)C(=O)N[C@@H](CCCCN)C(=O)N[C@@H](CCC(=O)O)C(=O)N[C@H](C(N)=O)[C@@H](C)CC)CSSC[C@H](NC(=O)[C@H](C)NC(=O)[C@H](CCCNC(=N)N)NC(=O)[C@H](CCCCN)NC(=O)[C@H](CO)NC(=O)[C@H](CC(=O)O)NC3=O)C(=O)N2 [compound 395] |  |  |  |  | pIC50 ([1]; tonic block): 7.20 and 6.67; pIC50 ([2]; tonic block): 6.15

Source: patent US9636418B2 (priority 2013, dated 2017)
